Test results taken from PubChem BioAssay AID248 (DTP/NCI, 2004).
Values joined by “and” are separate entries in the source; they are usually repeats but may differ in a detail not shown here. Equal entries are not always repeated. Toxic doses and inconclusive results are not listed. No stated cut-off is given here; in the data, active means T/C of 150% or more; inactive means T/C below 125%.

Test system: L1210 leukemia ip in BDF1 mice, survival T/C
Assay: NCI In Vivo Anticancer Drug Screen. Data for tumor model L1210 Leukemia (intraperitoneal) in B6D2F1 (BDF1) mice
Conditions: higher = longer survival
Summary of the method: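 Value reflects the ratio of survival in compound-treated mice to survival in vehicle-treated controls, with both groups carrying the same transplanted tumor.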

[1] = endpoint: mean survival time, dose: 100.0 mg/kg/injection, schedule: Q04DX003 (ip), vehicle: Klucel (hydroxypropylcellulose) (HPC)
[2] = endpoint: mean survival time, dose: 200.0 mg/kg/injection, schedule: Q04DX003 (ip), vehicle: Klucel (hydroxypropylcellulose) (HPC)
[3] = endpoint: mean survival time, dose: 400.0 mg/kg/injection, schedule: Q04DX003 (ip), vehicle: Klucel (hydroxypropylcellulose) (HPC)
[4] = endpoint: mean survival time, dose: 50.0 mg/kg/injection, schedule: Q01DX001 (ip), vehicle: saline
[5] = endpoint: mean survival time, dose: 100.0 mg/kg/injection, schedule: Q01DX001 (ip), vehicle: saline
[6] = endpoint: mean survival time, dose: 200.0 mg/kg/injection, schedule: Q01DX001 (ip), vehicle: saline
[7] = endpoint: mean survival time, dose: 400.0 mg/kg/injection, schedule: Q01DX001 (ip), vehicle: saline
[8] = endpoint: mean survival time, dose: 100.0 mg/kg/injection, schedule: Q04DX002 (ip), vehicle: Klucel (hydroxypropylcellulose) (HPC)
[9] = endpoint: mean survival time, dose: 200.0 mg/kg/injection, schedule: Q04DX002 (ip), vehicle: Klucel (hydroxypropylcellulose) (HPC)
[10] = endpoint: mean survival time, dose: 400.0 mg/kg/injection, schedule: Q04DX002 (ip), vehicle: Klucel (hydroxypropylcellulose) (HPC)
[11] = endpoint: mean survival time, dose: 100.0 mg/kg/injection, schedule: Q04DX003 (ip), vehicle: saline with Tween-80
[12] = endpoint: mean survival time, dose: 200.0 mg/kg/injection, schedule: Q04DX003 (ip), vehicle: saline with Tween-80
[13] = endpoint: mean survival time, dose: 400.0 mg/kg/injection, schedule: Q04DX003 (ip), vehicle: saline with Tween-80
[14] = endpoint: mean survival time, dose: 100.0 mg/kg/injection, schedule: Q01DX009 (ip), vehicle: Klucel (hydroxypropylcellulose) (HPC)
[15] = endpoint: mean survival time, dose: 200.0 mg/kg/injection, schedule: Q01DX009 (ip), vehicle: Klucel (hydroxypropylcellulose) (HPC)
[16] = endpoint: mean survival time, dose: 400.0 mg/kg/injection, schedule: Q01DX009 (ip), vehicle: Klucel (hydroxypropylcellulose) (HPC)
[17] = endpoint: mean survival time, dose: 100.0 mg/kg/injection, schedule: Q01DX009 (ip), vehicle: other
[18] = endpoint: mean survival time, dose: 200.0 mg/kg/injection, schedule: Q01DX009 (ip), vehicle: other
[19] = endpoint: mean survival time, dose: 400.0 mg/kg/injection, schedule: Q01DX009 (ip), vehicle: other
[20] = endpoint: mean survival time, dose: 100.0 mg/kg/injection, schedule: Q01DX009 (ip), vehicle: saline sonified
[21] = endpoint: mean survival time, dose: 200.0 mg/kg/injection, schedule: Q01DX009 (ip), vehicle: saline sonified

Measured: T/C

NC(CSCCc1ccc([N+](=O)[O-])cc1)C(=O)O (stereo not drawn)
inactive: [1] 105 % of control | [2] 96 % of control | [3] 93 % of control

COC(=O)c1sccc1C=O
inactive: [4] 103 % of control | [5] 100 % of control | [1] 100 % of control | endpoint: mean survival time, dose: 100.0 mg/kg/injection, schedule: Q04DX003 (ip), vehicle: acetone 98 % of control | [6] 100 % of control | [2] 104 % of control | endpoint: mean survival time, dose: 200.0 mg/kg/injection, schedule: Q04DX003 (ip), vehicle: acetone 102 % of control | [7] 97 % of control | [3] 105 % of control | endpoint: mean survival time, dose: 400.0 mg/kg/injection, schedule: Q04DX003 (ip), vehicle: acetone 89 % of control

COC1OC(CCl)C(OC(C)=O)C(OC(C)=O)C1OS(C)(=O)=O (stereo not drawn)
inactive: [8] 91 % of control | [9] 91 % of control | [10] 97 % of control

Nc1ccc(C(=O)N/N=C/c2ccccc2[N+](=O)[O-])cc1
inactive: endpoint: mean survival time, dose: 12.5 mg/kg/injection, schedule: Q01DX009 (ip), vehicle: other 91 % of control | endpoint: mean survival time, dose: 25.0 mg/kg/injection, schedule: Q01DX009 (ip), vehicle: other 93 % of control

OC(Cc1ccncc1)(c1ccccc1)c1ccccc1
inactive: [11] 88 % of control | [12] 88 % of control | [13] 109 % of control

Cn1nnnc1/C(=C/c1ccccc1)C(=O)O
inactive: [11] 95 % of control | [12] 95 % of control | [13] 90 % of control

CC(=O)Nc1nc(C)c(CCC(C)C)c(Cl)n1
inactive: endpoint: mean survival time, dose: 25.0 mg/kg/injection, schedule: Q04DX002 (ip), vehicle: Klucel (hydroxypropylcellulose) (HPC) 104 % of control | endpoint: mean survival time, dose: 50.0 mg/kg/injection, schedule: Q04DX002 (ip), vehicle: Klucel (hydroxypropylcellulose) (HPC) 93 % of control | [8] 105 % of control

Cc1cc(C)c(CCO)c(C)c1
inactive: endpoint: mean survival time, dose: 25.0 mg/kg/injection, schedule: Q01DX009 (ip), vehicle: DMSO 98 % of control | endpoint: mean survival time, dose: 25.0 mg/kg/injection, schedule: Q04DX003 (ip), vehicle: DMSO 93 % of control | endpoint: mean survival time, dose: 50.0 mg/kg/injection, schedule: Q01DX009 (ip), vehicle: DMSO 96 % of control | endpoint: mean survival time, dose: 50.0 mg/kg/injection, schedule: Q04DX003 (ip), vehicle: DMSO 102 % of control | endpoint: mean survival time, dose: 100.0 mg/kg/injection, schedule: Q04DX003 (ip), vehicle: DMSO 102 % of control

COc1[nH]c(=O)[nH]c(=O)c1OP(=O)(OC)OC
inactive: [4] 98 % of control | [5] 98 % of control | [6] 98 % of control | [7] 89 % of control

c1ccc2c(c1)ccc1oc3ccccc3c12
inactive: [5] 101 % of control | [6] 95 % of control | [7] 98 % of control

Cc1ccc2cc(N(C)C)ccc2[n+]1C
inactive: endpoint: mean survival time, dose: 3.13 mg/kg/injection, schedule: Q04DX003 (ip), vehicle: saline 101 % of control | endpoint: mean survival time, dose: 6.25 mg/kg/injection, schedule: Q04DX003 (ip), vehicle: saline 106 % of control | endpoint: mean survival time, dose: 12.5 mg/kg/injection, schedule: Q04DX003 (ip), vehicle: saline 96 % of control and 109 % of control

c1ccc(N=NC(N=Nc2ccccc2)=P(c2ccccc2)(c2ccccc2)c2ccccc2)cc1
inactive: [14] 97 % of control | [15] 108 % of control

COC(=O)C1(C(=O)OC)C2CCCCC21C (stereo not drawn)
inactive: endpoint: mean survival time, dose: 100.0 mg/kg/injection, schedule: Q01DX001 (ip), vehicle: Klucel (hydroxypropylcellulose) (HPC) 103 % of control | [14] 102 % of control | [1] 106 % of control | endpoint: mean survival time, dose: 200.0 mg/kg/injection, schedule: Q01DX001 (ip), vehicle: Klucel (hydroxypropylcellulose) (HPC) 102 % of control | [15] 101 % of control | [2] 106 % of control | endpoint: mean survival time, dose: 400.0 mg/kg/injection, schedule: Q01DX001 (ip), vehicle: Klucel (hydroxypropylcellulose) (HPC) 95 % of control | [16] 102 % of control | [3] 101 % of control

COc1cccc2c1C(=O)c1c(O)c3c(c(O)c1C2=O)C[C@@](O)(C(C)=O)C[C@@H]3OC1CC(NC(C)=O)C(O)C(C)O1 (stereo partly drawn)
inactive: endpoint: mean survival time, dose: 0.63 mg/kg/injection, schedule: Q01DX001 (ip), vehicle: other 101 % of control | endpoint: mean survival time, dose: 1.25 mg/kg/injection, schedule: Q01DX001 (ip), vehicle: other 103 % of control | endpoint: mean survival time, dose: 1.9 mg/kg/injection, schedule: Q01DX009 (ip), vehicle: saline 103 % of control | endpoint: mean survival time, dose: 2.5 mg/kg/injection, schedule: Q01DX001 (ip), vehicle: other 107 % of control | endpoint: mean survival time, dose: 3.8 mg/kg/injection, schedule: Q01DX009 (ip), vehicle: saline 103 % of control | endpoint: mean survival time, dose: 5.0 mg/kg/injection, schedule: Q01DX001 (ip), vehicle: other 106 % of control | endpoint: mean survival time, dose: 7.5 mg/kg/injection, schedule: Q01DX009 (ip), vehicle: saline 111 % of control | endpoint: mean survival time, dose: 10.0 mg/kg/injection, schedule: Q01DX001 (ip), vehicle: other 111 % of control | endpoint: mean survival time, dose: 10.0 mg/kg/injection, schedule: Q01DX001 (ip), vehicle: saline 114 % of control | endpoint: mean survival time, dose: 20.0 mg/kg/injection, schedule: Q01DX001 (ip), vehicle: other 123 % of control | endpoint: mean survival time, dose: 20.0 mg/kg/injection, schedule: Q01DX001 (ip), vehicle: saline 111 % of control | endpoint: mean survival time, dose: 40.0 mg/kg/injection, schedule: Q01DX001 (ip), vehicle: other 122 % of control | endpoint: mean survival time, dose: 40.0 mg/kg/injection, schedule: Q01DX001 (ip), vehicle: saline 124 % of control | endpoint: mean survival time, dose: 160.0 mg/kg/injection, schedule: Q01DX001 (ip), vehicle: saline 122 % of control | endpoint: mean survival time, dose: 320.0 mg/kg/injection, schedule: Q01DX001 (ip), vehicle: saline 113 % of control | endpoint: median survival time, dose: 75.0 mg/kg/injection, schedule: Q01DX001 (ip), vehicle: propolene glycol 122 % of control and 124 % of control | endpoint: median survival time, dose: 400.0 mg/kg/injection, schedule: Q01DX001 (ip), vehicle: propolene glycol 98 % of control and 88 % of control

O=NN1CCN(N=O)CC1
inactive: endpoint: mean survival time, dose: 100.0 mg/kg/injection, schedule: Q01DX001 (ip), vehicle: carboxymethylcellulose (CMC) 94 % of control | [11] 101 % of control

CCCS(=O)(=O)N(CC(=O)O)Cc1ccccc1
inactive: endpoint: mean survival time, dose: 50.0 mg/kg/injection, schedule: Q01DX009 (ip), vehicle: other 110 % of control | [17] 106 % of control and 107 % of control | [11] 101 % of control | [18] 112 % of control and 115 % of control | [12] 104 % of control | [19] 104 % of control | [13] 100 % of control

O=C(O)/C(=C\c1ccccc1Br)c1ccc(C(F)(F)F)cc1[N+](=O)[O-]
inactive: [20] 109 % of control | [21] 98 % of control

CCOc1ccc(NC(=O)c2c(Br)c(Br)c(Br)c(Br)c2C(=O)O)cc1
inactive: [14] 102 % of control | [15] 87 % of control

CCc1ccccc1NC(=O)c1ccccc1Cl
inactive: [17] 97 % of control | [11] 102 % of control | [18] 95 % of control | [12] 101 % of control | [19] 89 % of control | [13] 93 % of control

CCOC(=O)NC1c2ccccc2Oc2ccccc21
inactive: endpoint: mean survival time, dose: 75.0 mg/kg/injection, schedule: Q01DX009 (ip), vehicle: saline 115 % of control | [8] 102 % of control | endpoint: mean survival time, dose: 150.0 mg/kg/injection, schedule: Q01DX009 (ip), vehicle: saline 103 % of control | [9] 105 % of control | endpoint: mean survival time, dose: 300.0 mg/kg/injection, schedule: Q01DX009 (ip), vehicle: saline 111 % of control | [10] 102 % of control

O=[N+]([O-])c1ccc(S)cc1
inactive: [20] 103 % of control | [1] 89 % of control | [21] 91 % of control | endpoint: mean survival time, dose: 400.0 mg/kg/injection, schedule: Q01DX009 (ip), vehicle: saline sonified 92 % of control | [3] 90 % of control

CCOC(=O)C1=NNC(C(C)=O)(C(=O)OCC)C1CC (stereo not drawn)
inactive: [14] 102 % of control | [15] 95 % of control | [16] 96 % of control
